Entries after “also recorded” stand apart in the source; their conditions may differ.
Legend:
kidney allograft [1] = test: Kidney allograft survival after transplant and discontinuation of treatment, rapamycin discontinued on Day 30 (Example 3); format: in vivo, Rhesus monkeys
From the text: However, rapamycin administration was discontinued on Day 30 post-transplant. A control group was only administered the daily rapamycin.

[2] = tested on: regulatory T cells (Tregs); test: Immunomodulatory effect (Treg expansion) in naïve Rhesus monkeys, flow cytometry; format: in vivo
Experimental: An exemplary alpha-biased IL-2 variant fused to an Fc domain of human IgG1 was prepared with a full length sequence according to SEQ ID NO: 27. The immunomodulatory effect of the exemplary alpha-biased IL-2-Fc fusion protein was assessed in naïve Rhesus monkeys by a study outlined in FIG. 1A. […] Rapamycin was also administered daily from Day 0 by intramuscular injections, targeting a trough level of approximately 8-12 ng/mL. Treg populations (CD4^+CD25^+FoxP3^+ and CD4^+CD25^+CD127^lo) and other immune cell populations including CD3^+/CD8^+ cytotoxic T cells (CTL) were analyzed using flow cytometry.

kidney allograft [3] = tested on: kidney allograft
From the text: The effect of an exemplary alpha-biased IL-2-Fc fusion protein (SEQ ID NO: 27) on prolonged kidney allograft survival following transplant was studied in naïve Rhesus monkeys, as outlined in FIG. 1B. For the kidney transplant, animals were paired with ABO-compatible donors and mismatched for MHC haplotype of class I loci while allowing 1 or 2 MHC II haplotype matching. This degree of MHC mismatch is known to elicit a robust graft rejection and sensitization.
The alpha-biased IL-2-Fc fusion protein was administered subcutaneously at a dose of 50 μg/kg both pre- and post-transplant on Days −6, 1, 15, and 29. The kidney transplant was performed on Day 0, and rapamycin was administered daily by intramuscular injection, targeting a trough concentration of approximately 8-12 ng/mL. Rapamycin administration was discontinued on Day […] post-transplant. As a control, five monkeys were only administered the daily rapamycin. Kidney allograft biopsies were performed at 1-month and 3-months post-transplant. Blood samples were collected regularly, and samples were either analyzed at ambient temperature or frozen and stored.

Row | Compound | time to termination post-transplant (increases in sCR and BUN or excessive weight loss) (kidney allograft [1]; control group, daily rapamycin only, FIG. 10B) | percent of Tregs (CD4+CD25+FoxP3+) ([2]; 5-7 days after administration, increased from 6.21% pre-treatment, s.c. 50 or 100 μg/kg with daily rapamycin, FIG. 2A) [%] | tachyphylaxis of Treg number and percent on repeated dosing ([2]; FIGS. 3A and 3B, after each dose) | cytotoxic T cells (CTLs) during the increase in Tregs ([2]; over the course of treatment) | ratio of Tregs:CD8 cells ([2]; over the course of treatment, 50 or 100 μg/kg, FIG. 2B) | absolute number of Tregs ([2]; over the course of treatment, s.c. Days 0, 14, 28 at 50 or 100 μg/kg, daily rapamycin, FIG. 2B) | time sCR and BUN levels stable post-transplant, most cases (kidney allograft [1]; 50 μg/kg s.c. Days −6, 1, 15, 29 plus daily rapamycin until Day 30, most cases, FIG. 10A) | time sCR and BUN levels stable post-transplant, some cases (kidney allograft [1]; rapamycin discontinued Day 30, some cases) [days] | time sCR and BUN levels stable following complete withdrawal of immunosuppressive drugs (kidney allograft [1]; some cases) | survival post-transplant, one Rhesus monkey (kidney allograft [3]; 50 μg/kg plus daily rapamycin until Day 180, longest surviving monkey) [days] | kidney graft survival, at least three of four Rhesus monkeys (kidney allograft [3]; 50 μg/kg plus daily rapamycin, at least three of four monkeys) | time creatinine and BUN / transplanted kidney stable post-transplant, some cases (kidney allograft [3]; 50 μg/kg s.c. Days −6, 1, 15, 29 plus daily rapamycin until Day 180, some cases) | time creatinine and blood urea nitrogen (BUN) stable post-transplant, most cases (kidney allograft [3]; 50 μg/kg s.c. Days −6, 1, 15, 29 plus daily rapamycin, most cases, FIGS. 4A, 4B) | Tregs (FoxP3+ CD4+ and CD127lo CD4+) in PBMCs (kidney allograft [3]; after administration, post-transplant, FIG. 8) | CD20+ B cells (kidney allograft [3]; after kidney transplant, FIG. 5) | histopathology of monkey terminated early for excessive body weight loss (kidney allograft [3]; one monkey of the fusion protein group) | blood chemistry parameters (ALT, ALP, GGT, bilirubin, protein, albumin, globulin, cholesterol, phosphate, calcium, glucose, sodium, potassium, chloride) (kidney allograft [3]; rhesus monkey, in vivo) | hematology parameters (hemoglobin, hematocrit, blood cell counts) (kidney allograft [3]; rhesus monkey, in vivo)
1 | CO[C@H]1C[C@@H]2CC[C@@H](C)[C@@](O)(O2)C(=O)C(=O)N2CCCC[C@H]2C(=O)O[C@H]([C@H](C)C[C@@H]2CC[C@@H](O)[C@H](OC)C2)CC(=O)[C@H](C)/C=C(\C)[C@@H](O)[C@@H](OC)C(=O)[C@H](C)C[C@H](C)/C=C/C=C/C=C/1C [rapamycin, reference compound] | less than 30 days | – | – | – | – | – | – | – | – | – | – | – | – | – | – | – | – | –
2 | alpha-biased IL-2-Fc fusion protein: IL2 Variant (H16L/V69A/Q74P/C125S) fused to IgG1 Fc (N297G) allotype m3; full length sequence SEQ ID NO: 27 | – | 38.5 | without signs of tachyphylaxis | did not coincide with an increase | significantly increased in a dose-dependent manner | significantly increased in a dose-dependent manner; also recorded: statistically significant and dose dependent | at least 40 days | ≥ 110 | up to 82 days | 235 | over 50 days | over 235 days | over 50 days | increase in both percent and number | decrease | did not indicate kidney rejection | fell within the expected range | normally fell within their expected ranges

Source: US20260028384A1, “USE OF IL-2 VARIANT FOR TREATING KIDNEY TRANSPLANT REJECTION” (Visterra, Inc., priority 2024, published 2026)
